Patent publication US6916802B2, “Amino ceramide-like compounds and therapeutic methods of use” (Genzyme Corporation, priority 2002, dated 2005)
Values joined by “and” are separate entries in the source; they are usually repeats but may differ in a detail not shown here. Equal values may be shown once. Marks after values point to notes of the source that are not given here.

Assays:
[1] = test system: GlcCer synthase of MDCK cell homogenates; test: Inhibition of ceramide glucosyltransferase (GlcCer synthase) of MDCK cell homogenates; type: biochemical, canine; details: for Inhibition at 5 μM: 5 μM inhibitor, triplicate ± SD, samples partly isomer mixtures
Outline: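 MDCK cell sonicate (~0.2 mg protein) incubated with octanoyl sphingosine (85 μg, in dioleoylphosphatidylcholine/sulfatide liposomes) and UDP-[^3H]glucose in a thermostatted ultrasonic bath. Aromatic inhibitors were dried into the tube; aliphatic inhibitors were incorporated in the substrate liposomes.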

[2] = test system: MCF-7 breast carcinoma cells; test: Tumor cell growth in vitro (sulforhodamine B), MCF-7; type: cell-based, human; details: rounded off to one digit, read-out: Inhibition of tumor cell growth in vitro, IC50
Outline: (§1)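 Cells in RPMI 1640 + 5% FBS, plated 1000/well (H-460, 9L) or 2000/well (MCF-7); compounds added day 1 from 2 mM BSA stocks diluted 500-fold in medium. Growth read by sulforhodamine B staining, A520, at day 5 (H-460, 9L) or day 6 (MCF-7), as percent of control.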

[3] = test system: H-460 lung large cell carcinoma cells; test: Tumor cell growth in vitro (sulforhodamine B), H-460; type: cell-based, human; details: rounded off to one digit, read-out: Inhibition of tumor cell growth in vitro, IC50
Outline: as §1

[4] = test system: HT-29 colon adenocarcinoma cells; test: Tumor cell growth in vitro (sulforhodamine B), HT-29; type: cell-based, human; details: rounded off to one digit, read-out: Inhibition of tumor cell growth in vitro, IC50
Protocol: (§2) Growth of cell lines. Comparisons of different inhibitors with regard to suppression of human cancer cell growth were made by the University of Michigan Cancer Center in vitro Drug Evaluation Core Laboratory. MCF-7 breast carcinoma cells, HT-29 colon adenocarcinoma cells, H-460 lung large cell carcinoma cells, and 9L brain gliosarcoma cells were grown in RPMI 1640 medium with 5% fetal bovine serum, 2 mM glutamine, 50 units/ml of penicillin, […] of streptomycin, and 0.1 mg/ml of neomycin. UMSCC-10A head and neck squamous carcinoma cells were grown in minimal essential medium with Earle salts and the same supplements. Medium components were from Sigma Chemical Co. Cells were plated in 96-well microtiter plates (1000 cells/well for H-460 and 9L cells, and 2000 cells/well for the other lines), and the test compounds were added 1 day later. The stock inhibitor solutions, 2 mM in 2 mM BSA, were diluted with different amounts of additional 2 mM BSA, then each solution was diluted 500-fold with growth medium to obtain the final concentrations indicated in the Figures and Tables.
(§3) Five days after plating the H-460 and 9L cells, or 6 days for the other lines, cell growth was evaluated by staining the adhering cells with sulforhodamine B and measuring the absorbance at 520 nm (Skehan, P. et al., “New Colorimetric Cytotoxicity Assay for Anticancer-Drug Screening,” J. Natl. Cancer Inst., 82:1107-1112 (1990)). The absorbance of the treated cultures is reported as percent of that of control cultures, to provide an estimate of the fraction of the cells that survived, or of inhibition of growth rate.

[5] = test system: UMSCC-10A head and neck squamous carcinoma cells; test: Tumor cell growth in vitro (sulforhodamine B), UMSCC-10A; type: cell-based, human; details: rounded off to one digit, read-out: Inhibition of tumor cell growth in vitro, IC50
Protocol: as §2, §3

MDCK cells = test: MDCK cell growth (cellular protein per dish); type: cell-based, canine; details: duplicate dishes
Protocol: For the experiments with labeled thymidine, each 8.5 cm dish contained 500,000 Madin-Darby canine kidney (MDCK) cells in 8 ml of Dulbecco modified essential supplemented medium. […] The control cells were also incubated in the presence of BSA. The cells were washed with phosphate/saline and trichloroacetic acid, then scraped off the dishes, dissolved in alkali, and analyzed for protein and DNA incorporated tritium. [Methyl-^3H]thymidine (10 μCi) was added 4 h prior to harvesting.

acid ceramidase = test: Acid ceramidase of MDCK cell homogenate; type: biochemical, canine
Protocol: (§4) Acid and neutral ceramidases were assayed under conditions like those above, but the medium contained 110 μM [1-^14C]decanoyl sphingosine (10^5 cpm) in 340 μM dioleoylphosphatidylcholine liposomes and 0.34 mg of MDCK cellular protein homogenate. […] After 60 min in the ultrasonic bath, 3 ml of C-M 2:1, carrier decanoic acid, and 0.6 ml of 0.9% saline were added and the lipids in the lower layer were separated by TLC with C-HOAc 9:1. The liberated decanoic acid was scraped off the glass plate and counted.

neutral ceramidase = test: Neutral ceramidase of MDCK cell homogenate; type: biochemical, canine
Protocol: as §4

Ceramide synthase = Ceramide synthase of MDCK homogenate; type: biochemical, canine
Protocol: Ceramide synthase was assayed with 1 μM [3-^3H]sphingosine (70,000 cpm, repurified by column chromatography), 0.2 mM stearoyl-CoA, 0.5 mM dithiothreitol, and ˜300 μg of MDCK homogenate protein in 25 mM phosphate-K^+ buffer, pH 7.4, in a total volume of 0.2 ml. The incubation (for 30 min) and TLC were carried out as above and the ceramide band was counted.

Acid SMase = test: Acid sphingomyelinase of MDCK cells; type: biochemical, canine
Protocol: Acid and neutral SMase assays were based on the procedures of Gatt et al. (Gatt, S. et al., “Assay of Enzymes of Lipid Metabolism With Colored and Fluorescent Derivatives of Natural Lipids,” Meth. Enzymol., 72:351-375 (1981)), using liposomes containing NBD-SM dispersed like the labeled ceramide (10 μM substrate and 30 μM lecithin). The assay medium for the neutral enzyme also contained 50 mM Tris-Cl^− (pH 7.4), 25 mM KCl, 5 mM MgCl2 and 0.29 mg of MDCK cell protein in a total volume of 0.25 ml. Incubation was at 37° C. for 30 min in the ultrasonic bath, then the fluorescent product, NBD-ceramide, was isolated by partitioning the assay mixture with 0.45 ml 2-propanol, 1.5 ml heptane, and 0.2 ml water. After centrifugation, a trace of contaminating NBD-SM was removed from 0.9 ml of the upper layer by washing with 0.35 ml water. The upper layer was analyzed with a fluorometer (460 nm excitation, 515 nm emission).
[…] The resultant ceramide was determined as above.

For `CCCCCCCCCCCCCCCC(=O)NC(CN1CCCC1)C(O)c1ccccc1` (racemic) [BML-130], which “Inhibition at 5 μM” value [1] is on record?
The value was 79%.

What about the “degree of inhibition of GlcCer synthase” value ([1]; 6 μM, inhibitor incorporated into the substrate liposomes) of the same molecule?
Its value is 89±0.6%.

And the IC50 [2]?
The IC50 was 2000 nM.

What about the IC50 [3] of the same molecule?
Its IC50 is 3000 nM.

And the IC50 [4]?
Its IC50 is 2000 nM.

And the IC50 [5]?
Its IC50 is 2000 nM.

What about the Protein (MDCK cells; 0.4 μM in growth medium) of the same molecule?
Its Protein is 544 μg/dish and 538 μg/dish.

And the Protein (MDCK cells; 4 μM in growth medium)?
Its Protein is 160 μg/dish and 268 μg/dish.

And the “Ceramidase pH 4.5, enzyme activity (% of control)” value (acid ceramidase; 5 μM)?
Its value is 107 ± 11 % of control.

What about the “Ceramidase pH 4.5, enzyme activity (% of control)” value (acid ceramidase; 50 μM) of the same molecule?
Its value is 160 ± 21^a % of control.

What about the “Ceramidase pH 7.4, enzyme activity (% of control)” value (neutral ceramidase; 5 μM) of the same molecule?
Its value is 100 ± 15 % of control.

And the “Ceramidase pH 7.4, enzyme activity (% of control)” value (neutral ceramidase; 50 μM)?
The value was 100 ± 15 % of control.

And the “Ceramide Synthase, enzyme activity (% of control)” value (“Ceramide Synthase … (% of control)” below) (Ceramide synthase; 5 μM)?
The value was 108 ± 10 % of control.

And the “Ceramide Synthase … (% of control)” value (Ceramide synthase; 50 μM)?
The value was 106 ± 29 % of control.

What about the “Sphingomyelinase pH 4.5, enzyme activity (% of control)” value (Acid SMase; 5 μM) of the same molecule?
Its value is 109 ± 1 % of control.

And the “Sphingomyelinase pH 4.5, enzyme activity (% of control)” value (Acid SMase; 50 μM)?
Its value is 114 ± 2 % of control.

With `CCCCCCCCCCCCCCCC(=O)NC(CN1CCCC1)C(O)c1ccccc1` (racemic) [BML-129] as the molecule, how does the “Inhibition at 5 μM” value [1] read?
The value was 15%.

What about the IC50 [2] of the same molecule?
Its IC50 is 3000 nM.

And the IC50 [3]?
The IC50 was 2000 nM.

And the IC50 [4]?
Its IC50 is 2000 nM.

And the IC50 [5]?
The IC50 was 2000 nM.

And the Protein (MDCK cells; 0.4 μM in growth medium)?
The Protein was 538 μg/dish and 500 μg/dish.

And the Protein (MDCK cells; 4 μM in growth medium)?
The Protein was 396 μg/dish and 311 μg/dish.

And the “Ceramidase pH 4.5, enzyme activity (% of control)” value (acid ceramidase; 5 μM)?
Its value is 108 ± 8 % of control.

And the “Ceramidase pH 4.5, enzyme activity (% of control)” value (acid ceramidase; 50 μM)?
Its value is 171 ± 26^a % of control.

What about the “Ceramidase pH 7.4, enzyme activity (% of control)” value (neutral ceramidase; 5 μM) of the same molecule?
Its value is 100 ± 0 % of control.

And the “Ceramidase pH 7.4, enzyme activity (% of control)” value (neutral ceramidase; 50 μM)?
Its value is 99 ± 2 % of control.

What about the “Ceramide Synthase … (% of control)” value (Ceramide synthase; 5 μM) of the same molecule?
Its value is 97 ± 0 % of control.

What about the “Ceramide Synthase … (% of control)” value (Ceramide synthase; 50 μM) of the same molecule?
The value was 102 ± 1 % of control.

And the “Sphingomyelinase pH 4.5, enzyme activity (% of control)” value (Acid SMase; 5 μM)?
The value was 108 ± 4 % of control.

What about the “Sphingomyelinase pH 4.5, enzyme activity (% of control)” value (Acid SMase; 50 μM) of the same molecule?
Its value is 97 ± 3 % of control.
